Reference: PMC7249060, “The Antiproliferative Effects of Flavonoid MAO Inhibitors on Prostate Cancer Cells” (Molecules, 2020)

What was measured:
[1] = tested on: LNCaP cells; experiment: Antiproliferation screen assay, resazurin, 72 h; type: cell-based, human
[2] = tested on: LNCaP cells; experiment: Viability screen assay, resazurin, 24 h; type: cell-based, human; details: 50 μM, 90% viability as margin of cytotoxicity
Procedure: We examined the cytotoxic effects of all 20 synthesized KKRs on the three human PCa cell lines LNCaP, DU145, and PC3, after a 24 h exposure period. Non-toxic TAX was used for comparison. Briefly, cultured cells were seeded in black transparent bottom 96-well microplates at 50,000 cells/175-µL/well in experimental media (RPMI1640 for LNCaP, EMEM for DU145, and DMEM/F12K for PC3), supplied with 5% FBS and 1% P/S. Wells of media without cells were considered blanks and negative controls. The plates were incubated overnight at 37 °C in 5% CO2 to allow cell attachment. For each compound, a working solution of 8X KKR in sterile […] HEPES in HBSS pH buffer of 7.4 was prepared for a final concentration of 50 μM each. The three attached cell types were treated immediately with the related buffer being added to the control wells. A sterile fluorescence-based solution of the resazurin reagent of 0.5 mg/mL in HBSS was prepared. After 24 h, the cells were exposed to 15% v/v of the sterile resazurin reagent, and the plates were re-incubated for 4.5 h to allow redox reaction. All plates were read under 530/590-nm excitation/emission wavelengths using Bio-Tek Synergy HTX Multi-reader as a microplate fluorescence reader.

[3] = tested on: LNCaP cells; experiment: Antiproliferation screen assay, resazurin, 72 h; type: cell-based, human; details: 50 μM
Procedure: In this screen, we examined the growth inhibitory effects of all synthesized KKRs on the three human PCa cell lines LNCaP, DU145, and PC3. The antiproliferative clinical drug TAX of 0.25 μM was used as a positive control. Additionally, different standards of MAO-Is and FLUT were tested for their effect on the LNCaP cells. Briefly, the procedures and materials used were the same as for the viability assay except for the following—cultured cells were seeded at 10,000 cells/175-µL/well related experimental media, and the resazurin solution was added after 72 h of incubation with the compounds of 50 μM each.

[4] = tested on: LNCaP cells; experiment: Antiproliferation dose-response assay for 72 h; type: cell-based; details: Homo sapiens, mean ± SEM of two experiments, read-out: antiproliferative IC50
Procedure: For the top effective KKRs, along with TAX, their potency to reduce the affected PCa cell line growth in a dose-dependent manner was determined using the resazurin fluorescence assay. We followed the same protocols and materials used for the antiproliferation screen assays (Section 4.3.2), with the following modifications. The maximum final KKR concentration used was 40 μM. The concentration of 8X of each KKR working solution in 1% HEPES 7.4 was serially diluted in a 3:1 ratio, compound to buffer, respectively. Each data set was collected from ten data points of 3.7–40 μM range. The control had the KKR substituted with buffer. The related IC50 averages were analyzed for the compounds that affected the cell lines the most.

[5] = tested on: LNCaP cells; experiment: cells; type: cell-based, human
Procedure: The morphological alterations of the LNCaP cells were imaged, and their percentage proliferation rate was measured after five-days of incubation. The method of subculture and treatment were similar to our antiproliferation assay, with slight modifications. Briefly, the cells were seeded in transparent flat-bottom 96-well microplates with 10,000 cells/175 μL/well of […] experimental media. Following overnight incubation, 20 μM concentration level (~2 × IC50) for each of KKR11, 20, 7, 2A, 21, and the standard PIRL were added to the cells for a total volume of 200 μL/well and re-incubated for five-days. On the day of imaging, 20X phase-contrast images of lid-covered treated and control cells were captured using an inverted microscope. Resazurin was then added for viability detection, and the imaged cells in the wells were read after 4.5 h on the Bio-Tek Synergy HTX Multi-reader.

[6] = target: T1, hMAO-B (Homo sapiens, UniProt P27338); experiment: MAO-Glow inhibitory potency (IC50); type: biochemical; details: mean ± SEM, at least two experiments; LDS 4 μM
T1 construct: purchased Sigma-Aldrich Co. (St. Louis, MO, USA)
T1 sequence (P27338 1-520): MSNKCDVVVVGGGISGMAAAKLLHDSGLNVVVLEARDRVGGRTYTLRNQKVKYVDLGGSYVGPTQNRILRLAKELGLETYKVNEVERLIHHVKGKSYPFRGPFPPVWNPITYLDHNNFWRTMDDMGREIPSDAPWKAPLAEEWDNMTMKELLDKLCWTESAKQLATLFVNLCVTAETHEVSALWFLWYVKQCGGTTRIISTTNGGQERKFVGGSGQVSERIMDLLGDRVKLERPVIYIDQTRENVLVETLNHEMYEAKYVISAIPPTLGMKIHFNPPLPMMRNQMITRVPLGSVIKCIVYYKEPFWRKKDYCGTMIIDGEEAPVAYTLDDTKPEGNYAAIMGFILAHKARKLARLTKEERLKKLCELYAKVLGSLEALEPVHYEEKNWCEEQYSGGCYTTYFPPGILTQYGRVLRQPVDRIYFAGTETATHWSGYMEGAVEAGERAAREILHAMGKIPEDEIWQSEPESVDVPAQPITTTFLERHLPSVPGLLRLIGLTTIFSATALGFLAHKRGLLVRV
Procedure: (§1) The inhibitory effects of the synthesized KKRs of hMAO-A and B were tested by measuring the decrease in arbitrary light units (ALU) signal produced by the optimized isozymes using the MAO-Glow™ Assay at 37 °C. In this assay, DMSO stock for each KKR compound was diluted with a reaction buffer of pH 7.4 to make a 4X working solution for a maximum final concentration of 100 μM and ≤1% DMSO. The experiments were run in the absence and presence of 4X the miscellaneous standards of MAO-BIs (DEP, PARG, and SAF) and MAO-AIs (PIRL and CLORG), with similar concentrations. In white opaque 96-well microplates, 12.5 μL of each compound was plated at RT and was followed by 25 μL of 2X cold hMAO-A or hMAO-B, for a final concentration of 0.44 U/mL. A related buffer substituted each isozyme to make the blank wells and substituted each compound to make the negative control wells. Following this, we added 12.5 μL of 4X LDS to make a final substrate concentration of 40- and 4-μM for hMAO-A and hMAO-B, respectively. All screen plates were incubated at 37 °C for 60 min. The plates of 50 μL/well were then taken out from the incubator, and their reactions were stopped by an equal volume of 50 μL of reporter luciferin detection reagent (RLDR). After 30 min, the luminescence signals for all plates were read on a Synergy HTX Multi-reader from Bio-Tek (Winooski, VT, USA).
(§2) The experiments were performed in the presence and absence of the standard PILR. In white opaque 96-well plates, each KKR compound was serially diluted with a reaction buffer of pH 7.4 at the highest possible maximum final concentration, and the least used DMSO (<2%). In blank wells, the related reaction buffer substituted the isozyme. In negative control wells, the reaction buffer substituted each compound concentration. Then, the procedure was carried out as mentioned above (Section 4.2.2), and the reaction was detected on the Bio-Tek Synergy HTX Multi-Reader. The IC50 of each KKR on both isozymes was determined and subsequently the RSA and RSB was calculated.
(§3) Statistical analyses were performed using the GraphPad Prism program (version 6.07 for Windows) from the GraphPad Prism Software Incorporated (San Diego, CA, USA). All data points and parameters were expressed as the mean ± SEM. All parameters were calculated from non-linear and linear regressions with the best R^2 values, no less than 93%. The inhibitory concentration of 50% of isozyme (IC50) of each compound was obtained by the interpolation of a normalized variable slope logarithmic curve. The RSA values of the selected compounds were calculated from their IC50 average means following the equation RSA = hMAO − B IC50/Hmao − A IC50(1)

[7] = target: T2, hMAO-A (Homo sapiens, UniProt P21397); experiment: MAO-Glow inhibitory potency (IC50) and relative selectivity; type: biochemical; details: mean ± SEM, at least two experiments; LDS 40 μM
T2 construct: purchased Sigma-Aldrich Co. (St. Louis, MO, USA)
T2 sequence (P21397 1-527): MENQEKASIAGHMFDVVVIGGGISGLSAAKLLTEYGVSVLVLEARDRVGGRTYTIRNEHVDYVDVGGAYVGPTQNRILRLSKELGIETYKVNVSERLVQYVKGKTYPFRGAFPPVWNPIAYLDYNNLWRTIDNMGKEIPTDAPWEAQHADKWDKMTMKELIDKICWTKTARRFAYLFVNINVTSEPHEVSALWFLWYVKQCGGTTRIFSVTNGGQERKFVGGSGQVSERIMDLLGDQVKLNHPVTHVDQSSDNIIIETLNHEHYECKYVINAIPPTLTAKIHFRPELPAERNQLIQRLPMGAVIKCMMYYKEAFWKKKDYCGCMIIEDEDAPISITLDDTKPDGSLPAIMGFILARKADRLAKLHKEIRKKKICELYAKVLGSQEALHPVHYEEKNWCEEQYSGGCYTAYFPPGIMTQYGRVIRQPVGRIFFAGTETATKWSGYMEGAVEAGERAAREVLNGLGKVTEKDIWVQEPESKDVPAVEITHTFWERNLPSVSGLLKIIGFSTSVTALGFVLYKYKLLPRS
Procedure: as §1, §2, §3

[8] = tested on: DU145 cells; experiment: Scratch migration assay; type: cell-based, human; details: preliminary data
Procedure: For in-vitro migration experiments, the PCa metastatic DU145 cell line was used. Cell proliferation and cytotoxicity were monitored for assay validation. The cells (passage # ≤ 10) were grown in fresh media of EMEM 10% FBS, 1% P/S. The cells were seeded in flat-bottom transparent 96-well microplates (100,000 cells/100 μL/well) in EMEM 5% FBS, 1% P/S experimental media. The next day, the confluent cells monolayer was artificially injured by scratching a line across each well, using a 200 μL tip. Immediately, the old media with the detached cells were replaced with 175 μL fresh warm experimental media. Intact cells were then treated with 25 μL of HBSS buffer 7.4 containing tested KKR. In addition to the negative control, KKR11 was tested at gradual concentrations to make finals of 40, 30, 23, 17, and 13 μM. The cells were then incubated for an additional 72 h for gap closure of the control wells.
At the gap closure time point, all cells were subjected to the crystal violet assay that only stains viable cells. Briefly, all media were carefully aspired from cells that were then washed with Ca- and Mg-free PBS. The cells were then fixed with 100 μL 0.25% v/v glutaraldehyde, at 37 °C for 20–30 min incubation time, and dried overnight. The next day, all viable attached cells were stained with a 100 μL crystal violet solution (0.1% in DI-water) for up to 30 min. The solution was then discarded, and the stained cells were kept dry for imaging. Images of the scratched areas were photographed using 10X phase contrast objective lenses of Motic-MXH-100-AE31E-Elite Inverted Microscope.

C#CCN(C)[C@H](C)Cc1ccccc1.Cl [DEP, (R)-(−)-deprenyl HCl]
antiproliferative effect of clinical standards ([1]; 10 μM): none of the standards showed a significant antiproliferative effect

CC(C)C(=O)Nc1ccc([N+](=O)[O-])c(C(F)(F)F)c1 [FLUT, flutamide]
antiproliferative effect of clinical standards ([1]; 10 μM): none of the standards showed a significant antiproliferative effect

COc1cc(OC)c2c(=O)c(O)c(/C=C/c3ccccc3)oc2c1 [KKR16, (E)-3-hydroxy-5,7-dimethoxy-2-styryl-4H-chromen-4-one]
cytotoxicity / cell viability [2]: affected the LNCaP cells

O=C(/C=C/c1ccc2c(c1)OCO2)c1cc(Cl)cc(Cl)c1O [KKR18, (E)-3-(benzo[d][1,3]dioxol-5-yl)-1-(3,5-dichloro-2-hydroxyphenyl)prop-2-en-1-one]
antiproliferative effect in screen [3]: top five KKRs that kept standing out with antiproliferative effects

COc1cc(-c2cc(=O)c3ccccc3o2)cc(OC)c1OC [KKR22, 2-(3,4,5-trimethoxyphenyl)-4H-chromen-4-one]
cytotoxicity / cell viability [2]: affected the LNCaP cells

O=C(/C=C/c1ccccc1)c1cc(Cl)c(Cl)cc1O [KKR23, (E)-1-(4,5-dichloro-2-hydroxyphenyl)-3-phenylprop-2-en-1-one]
antiproliferative effect in screen [3]: top five KKRs that kept standing out with antiproliferative effects

Cc1ccc2c(c1)c1c3n2CCNC3CCC1 (stereo not drawn) [PIRL, pirlindole, reference compound]
IC50 [4]: > 40000 nM | effect on LNCaP proliferation and cell morphology ([5]; 20 μM, five days, phase contrast): neither significant effects on LNCaP proliferation nor apparent changes in cell morphology | viability at 20 µM ([5]; Homo sapiens, LNCaP, 120 h, read-out: percentage of treated group compared to the viable control): 90% | IC50 [6]: > 800000 nM | antiproliferative effect of clinical standards ([1]; 10 μM): none of the standards showed a significant antiproliferative effect | IC50 [7]: 12 ± 2 nM

CC(=O)O[C@H]1C(=O)[C@@]2(C)[C@H]([C@H](OC(=O)c3ccccc3)[C@]3(O)C[C@H](OC(=O)[C@H](O)[C@@H](NC(=O)c4ccccc4)c4ccccc4)C(C)=C1C3(C)C)[C@]1(OC(C)=O)CO[C@@H]1C[C@@H]2O [TAX, paclitaxel, reference compound]
IC50 [4]: 210 nM | antiproliferative effect of clinical standards ([1]; 0.5 μM): highly effective | effect on cell migration [8]: delayed cell migration
